Experimental data from publication PMC11432330, “Novel Drug-like HsrA Inhibitors Exhibit Potent Narrow-Spectrum Antimicrobial Activities against Helicobacter pylori” (International Journal of Molecular Sciences, 2024).
Values after ≈ are worked out from the molar mass of the structure shown. Read-outs that look alike come from different tables or passages of the source.

Key:
H. pylori = experiment: MIC across the four H. pylori strains tested (text summaries); format: cell-based, Helicobacter pylori; settings: for MIC: Helicobacter pylori
Method: The antimicrobial activity of the HsrA inhibitors was evaluated by the determination of the minimal inhibitory concentration (MIC) against four different strains of H. pylori: ATCC 700392 (aka 26695), ATCC 43504 (MTZ-resistant reference strain), ATCC 700684 (CLR-resistant reference strain), and Donostia 2 (LVX-resistant clinical isolate). The MICs were determined by the broth microdilution method, as previously described. Briefly, H. pylori strains were grown in blood agar at 37 °C for 72 h under microaerobic conditions. Fresh inoculums adjusted at OD600 = 0.01 [~10^6 colony forming units (CFU) per mL] in BHI broth supplemented with 4% fetal bovine serum (BHI + FBS) were prepared and immediately exposed to final concentrations between 64 and 0.031 mg/L of each compound of interest. The compound solvent (DMSO) as well as conventional antibiotics (MTZ, CLR, LVX) were included as controls. […] Each experiment was performed twice in triplicate. The MIC and MBC values of the selected compounds against C. jejuni ATCC 33560 were determined by using the same method and culture conditions described for the H. pylori strains.

E. coli ATCC 25922 = experiment: MIC/MBC according to EUCAST guidelines; format: cell-based; settings: Escherichia coli, ATCC25922
Method: (§1) The antimicrobial activities of the selected compounds against several Gram-negative and Gran-positive representative species of normal human microbiota were determined according to the EUCAST guidelines. Briefly, standardized inoculums (0.5 McFarland) were freshly prepared from overnight Mueller–Hinton agar plates of reference strains E. coli ATCC 25922, K. pneumonia ATCC 700603, E. faecalis ATCC 29212, S. aureus ATCC 29213, S. epidermidis ATCC 12228, and S. agalactiae ATCC 12386. Next, bacterial suspensions adjusted to 5 × 10^5 CFU/mL in Mueller–Hinton broth were exposed to a range of concentrations from 64 to 0.031 mg/L of the selected compounds. DMSO and conventional antibiotics LVX and AMP were included as controls. […] Experiments were performed twice in triplicate.

E. faecalis ATCC 29212 = experiment: MIC/MBC according to EUCAST guidelines; format: cell-based; settings: Enterococcus faecalis, ATCC29212
Method: as §1

S. agalactiae ATCC 12386 = experiment: MIC/MBC according to EUCAST guidelines; format: cell-based; settings: Streptococcus agalactiae, ATCC12386
Method: as §1

S. aureus ATCC 29213 = experiment: MIC/MBC according to EUCAST guidelines; format: cell-based; settings: Staphylococcus aureus, ATCC29213
Method: as §1

[1] = tested on: S. epidermidis ATCC 12228; experiment: MIC/MBC according to EUCAST guidelines; format: cell-based; settings: Staphylococcus epidermidis, ATCC12228
Method: as §1

H. pylori ATCC 700392 = experiment: Checkerboard assay with first-line antibiotics; format: cell-based, Helicobacter pylori
Method: Potential synergisms between the selected HsrA inhibitors and first-line antibiotics were evaluated by using checkerboard assays, as previous described. Briefly, the antimicrobials to be tested were twofold serially diluted in BHI + FBS using independent sterile microtiter plates. Then, concentration gradients from two antimicrobials were aseptically mixed at equal volumes in a new microtiter plate, resulting in a matrix of 77 unique combinations of both compounds. Next, freshly prepared inoculum of H. pylori ATCC 700392 adjusted at 2 × 10^6 CFU/mL in BHI+ FBS were added to all wells, and plates were incubated for 72 h at 37 °C under microaerophilic conditions. […] The fractional inhibitory concentration index (FICI) for each antimicrobial combination was calculated as previously described. Values of FICI ≤ 0.5, 0.5 < FICI ≤ 1, 1 < FICI ≤ 4, and FICI > 4 were considered as indicative of synergistic, additive, neutral, or antagonist interactions, respectively.

[2] = Cytotoxicity, PrestoBlue cell viability assay; format: cell-based; settings: human; HeLa cells, 24 h exposure; read-out: CC50 (50% cytotoxic concentration)
Method: (§2) The in vitro toxicity of the selected HsrA inhibitors was determined on HeLa cells by the PrestoBlue^TM assay, as previously described. Briefly, cells were cultured at 37 °C with 5% CO2 in Dulbecco’s modified Eagle’s medium containing 10% fetal bovine serum, 1% L-GlutaMAX^TM solution (Thermo Fisher Scientific), and 1% penicillin/streptomycin. When 80% confluence was achieved, cells were detached, counted, seeded in 96-well microplates at a density of 10,000 cells per well, and allowed to adhere for 24 h. Next, the mammalian cells were exposed to selected compounds at a range of 0.125 to 128 mg/L. After 24 h of exposure, the cell viability was measured with the PrestoBlue^TM cell viability reagent (Thermo Fisher Scientific), according to the manufacturer’s instructions. Experiments were performed twice in triplicate. The 50% cytotoxic concentration (CC50) of each compound was calculated by regression analysis using Microsoft Excel. Therapeutic index (TI) values were calculated as the ratio of the CC50 to the higher MIC observed for each compound [111].

HeLa cells = experiment: Cytotoxicity, PrestoBlue cell viability assay; format: cell-based
Method: as §2

HsrA = HsrA (Helicobacter pylori, UniProt O25684); experiment: Isothermal titration calorimetry (ITC) with HsrA; format: binding; settings: for ΔG: absolute error 0.1; for ΔH: absolute error 0.4
Method: Molecular interactions of the selected ligands with proteins HsrA or CosR were studied by isothermal titration calorimetry (ITC), as previously described. Titrations were assessed in a high-sensitivity MicroCal Auto-iTC200 calorimeter (Malvern Panalytical, Malvern, UK). Experiments were carried out at 25 °C in freshly prepared buffer containing 50 mM Tris-HCl [pH 8], 150 mM NaCl, 10% glycerol, and 1% DMSO. A 20 µM solution of protein was located in the calorimetric cell. Then, a sequence of 19 injections of 2 µL volume each with a 200 µM solution of the corresponding ligand was programmed with a time spacing of 150 s, a stirring speed of 750 rpm, and a reference power of 10 µcal/s in the sample cell. Thermodynamic properties such as binding stoichiometry, dissociation constants, and binding enthalpies were calculated by nonlinear least-squares regression data analysis using Origin 7.0 software.

[3] = four strains incl. CLR-, MTZ- and LVX-resistant, read-out: MIC against all H. pylori strains tested
[4] = in combination with CLR (clarithromycin)
[5] = in combination with LVX (levofloxacin)
[6] = in combination with MTZ (metronidazole)
[7] = ITC, 25 °C, pH 8, relative error 15%, read-out: Kd

Sequence of HsrA (O25684 entry or part of it): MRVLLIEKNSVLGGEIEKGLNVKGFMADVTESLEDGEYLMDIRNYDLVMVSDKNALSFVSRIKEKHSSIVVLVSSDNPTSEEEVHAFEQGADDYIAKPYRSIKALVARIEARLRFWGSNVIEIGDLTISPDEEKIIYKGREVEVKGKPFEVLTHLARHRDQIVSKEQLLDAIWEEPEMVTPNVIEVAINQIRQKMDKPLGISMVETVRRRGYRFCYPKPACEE

Q: Which results are given for `CSc1cccc(NC(=S)NCCNc2c([N+](=O)[O-])cc(C(F)(F)F)cc2[N+](=O)[O-])c1` [Ligand IV]?
A: MIC (H. pylori; [3]): 0.031 to 4 µg/mL (≈ 0.0652 to 8.41 µM); MBC (E. coli ATCC 25922): > 64 µg/mL; MIC (E. coli ATCC 25922): > 64 µg/mL; MBC (E. faecalis ATCC 29212): > 64 µg/mL; MIC (E. faecalis ATCC 29212): > 64 µg/mL; MBC (S. agalactiae ATCC 12386): > 64 µg/mL; MIC (S. agalactiae ATCC 12386): > 64 µg/mL; MBC (S. aureus ATCC 29213): > 64 µg/mL; MIC (S. aureus ATCC 29213): > 64 µg/mL; MBC [1]: > 64 µg/mL; MIC [1]: > 64 µg/mL; FICI (H. pylori ATCC 700392; [4]): 2; FICantibiotic (H. pylori ATCC 700392; [4]): 1; FICinhibitor (H. pylori ATCC 700392; [4]): 1; FICI (H. pylori ATCC 700392; [5]): 2; FICantibiotic (H. pylori ATCC 700392; [5]): 1; FICinhibitor (H. pylori ATCC 700392; [5]): 1; FICI (H. pylori ATCC 700392; [6]): 2; FICantibiotic (H. pylori ATCC 700392; [6]): 1; FICinhibitor (H. pylori ATCC 700392; [6]): 1; CC50 at 24 h [2]: 135 µg/mL (≈ 284 µM); Cytotoxicity at 8 mg/L (HeLa cells; HeLa cells, 8 mg/L, 24 h): completely safe; Kd (HsrA): 3.9 µM; n (stoichiometry) (HsrA; ITC, 25 °C, pH 8): 0.9; ΔG (HsrA; ITC, 25 °C): –7.4 kcal/mol; ΔH (HsrA; ITC, 25 °C): –1.6 kcal/mol

Q: Which results are given for `OC1(C(F)(F)F)CC(c2ccc3c(c2)Nc2ccccc2S3)=NN1` (stereo not shown) [Ligand VIII]?
A: MIC (H. pylori; [3]): 0.031 to 4 µg/mL (≈ 0.0882 to 11.4 µM); MBC (E. coli ATCC 25922): > 64 µg/mL; MIC (E. coli ATCC 25922): > 64 µg/mL; MBC (E. faecalis ATCC 29212): 64 µg/mL (≈ 182 µM); MIC (E. faecalis ATCC 29212): 64 µg/mL (≈ 182 µM); MBC (S. agalactiae ATCC 12386): 32 µg/mL (≈ 91.1 µM); MIC (S. agalactiae ATCC 12386): 16 µg/mL (≈ 45.5 µM); MBC (S. aureus ATCC 29213): 32 µg/mL (≈ 91.1 µM); MIC (S. aureus ATCC 29213): 16 µg/mL (≈ 45.5 µM); MBC [1]: 4 µg/mL (≈ 11.4 µM); MIC [1]: 4 µg/mL (≈ 11.4 µM); FICI (H. pylori ATCC 700392; [4]): 0.53; FICantibiotic (H. pylori ATCC 700392; [4]): 0.5; FICinhibitor (H. pylori ATCC 700392; [4]): 0.03; FICI (H. pylori ATCC 700392; [5]): 2; FICantibiotic (H. pylori ATCC 700392; [5]): 1; FICinhibitor (H. pylori ATCC 700392; [5]): 1; Interaction (H. pylori ATCC 700392; [5]): Neutral (no interaction or neutral (FICI > 1 to ≤4)); FICI (H. pylori ATCC 700392; [6]): 0.625; FICantibiotic (H. pylori ATCC 700392; [6]): 0.5; FICinhibitor (H. pylori ATCC 700392; [6]): 0.125; CC50 at 24 h [2]: 6.5 µg/mL (≈ 18.5 µM); TI (CC50/MIC), therapeutic index (HeLa cells; CC50 on HeLa / higher MIC observed against H. pylori): 3.2; Cell death (HeLa cells; HeLa cells, 8 mg/L, 24 h): 68%; n (stoichiometry) (HsrA; ITC, 25 °C, pH 8): 0.9; Kd (HsrA; [7]): 10 µM; ΔG (HsrA; ITC, 25 °C): –6.8 kcal/mol; ΔH (HsrA; ITC, 25 °C): 0.8 kcal/mol

Q: Which results are given for `NC(=NOC(=O)Nc1ccc(Cl)cc1)c1csc([N+](=O)[O-])c1` [Ligand V, N′-{[(4-chloroanilino)carbonyl]}oxy-5-nitrothiophene-3-carboximidamide]?
A: MIC (H. pylori; read-out: MIC against all H. pylori strains tested, four strains incl. CLR-, MTZ- and LVX-resistant): 0.031 to 0.125 µg/mL (≈ 0.091 to 0.367 µM); MIC (H. pylori; [3]): 0.031 to 4 µg/mL (≈ 0.091 to 11.7 µM); Antimicrobial potency relative to ligand XII (H. pylori; same H. pylori strains): at least 4 fold; Antimicrobial potency relative to metronidazole (H. pylori; same H. pylori strains): more than 10 fold; MBC (E. coli ATCC 25922): > 64 µg/mL; MIC (E. coli ATCC 25922): > 64 µg/mL; MBC (E. faecalis ATCC 29212): > 64 µg/mL; MIC (E. faecalis ATCC 29212): > 64 µg/mL; MBC (S. agalactiae ATCC 12386): > 64 µg/mL; MIC (S. agalactiae ATCC 12386): > 64 µg/mL; MBC (S. aureus ATCC 29213): > 64 µg/mL; MIC (S. aureus ATCC 29213): > 64 µg/mL; MBC [1]: > 64 µg/mL; MIC [1]: > 64 µg/mL; FICI (H. pylori ATCC 700392; [4]): 0.56; FICantibiotic (H. pylori ATCC 700392; [4]): 0.5; FICinhibitor (H. pylori ATCC 700392; [4]): 0.06; FICI (H. pylori ATCC 700392; [5]): 2; FICantibiotic (H. pylori ATCC 700392; [5]): 1; FICinhibitor (H. pylori ATCC 700392; [5]): 1; Interaction (H. pylori ATCC 700392; [5]): Neutral (no interaction or neutral (FICI > 1 to ≤4)); FICI (H. pylori ATCC 700392; [6]): 0.625; FICantibiotic (H. pylori ATCC 700392; [6]): 0.125; FICinhibitor (H. pylori ATCC 700392; [6]): 0.5; CC50 at 24 h [2]: 183 µg/mL (≈ 538 µM); Cytotoxicity at 8 mg/L (HeLa cells; HeLa cells, 8 mg/L, 24 h): completely safe; Affinity to HsrA relative to ligand XII (HsrA; ITC): > 3 fold; n (stoichiometry) (HsrA; ITC, 25 °C, pH 8): 1.0; Kd (HsrA; [7]): 13 µM; ΔG (HsrA; ITC, 25 °C): –6.7 kcal/mol; ΔH (HsrA; ITC, 25 °C): –1.9 kcal/mol
